Laboratory results published in ChEMBL document CHEMBL1128944, “Potent cyclic urea HIV protease inhibitors with benzofused heterocycles as P2/P2 groups” (Bioorg Med Chem Lett, 1996).
pKi: −log10 of the molar value.

Experiments:
[1] = target: Human immunodeficiency virus type 1 protease (Human immunodeficiency virus 1, UniProt Q72874); assay: Inhibitory activity was evaluated against HIV protease
[2] = target: Human immunodeficiency virus type 1 protease (Human immunodeficiency virus 1) (UniProt Q72874); assay: Inhibitory activity against HIV-1 RF infected MT-2 cells; assay type: functional, cell-based; settings: MT2
[3] = Half life period was evaluated in rats; assay type: ADME, organism-based; settings: rat, in vivo
[4] = Clearance value was evaluated in dog plasma; assay type: ADME, organism-based, Canis lupus familiaris
[5] = Maximum concentration was evaluated in dog plasma; assay type: ADME, organism-based, Canis lupus familiaris
[6] = Half life period was evaluated in dog; assay type: ADME, organism-based, Canis lupus familiaris; settings: in vivo
[7] = Plasma Clearance was evaluated in rats, iv; assay type: ADME, organism-based; settings: rat
[8] = Bioavailability was evaluated in dog; assay type: ADME, organism-based, Canis lupus familiaris; settings: in vivo

SMILES | pKi [1] | IC90 [2] [nM] | other results
O=C1N(Cc2ccc3sc(O)nc3c2)[C@H](Cc2ccccc2)[C@H](O)[C@@H](O)[C@@H](Cc2ccccc2)N1Cc1ccc2sc(O)nc2c1 | 6.89 |  | 
O=C1N(Cc2ccc3nc(O)oc3c2)[C@H](Cc2ccccc2)[C@H](O)[C@@H](O)[C@@H](Cc2ccccc2)N1Cc1ccc2nc(O)oc2c1 | 9.74 | 40 | 
Nc1nc2ccc(CN3C(=O)N(Cc4ccc5nc(N)sc5c4)[C@H](Cc4ccccc4)[C@H](O)[C@@H](O)[C@H]3Cc3ccccc3)cc2s1 | 8.24 | 270 | 
O=C1N(Cc2ccc3nc(S)oc3c2)[C@H](Cc2ccccc2)[C@H](O)[C@@H](O)[C@@H](Cc2ccccc2)N1Cc1ccc2nc(S)oc2c1 | 8.32 | 5100 | 
O=C1N(Cc2ccc3[nH]c(O)nc3c2)[C@H](Cc2ccccc2)[C@H](O)[C@@H](O)[C@@H](Cc2ccccc2)N1Cc1ccc2[nH]c(O)nc2c1 | > 11.00 | > 65000 | 
O=C1N(Cc2ccc3nc(O)cnc3c2)[C@H](Cc2ccccc2)[C@H](O)[C@@H](O)[C@@H](Cc2ccccc2)N1Cc1ccc2nc(O)cnc2c1 | 6.31 | 7800 | 
O=C1N(Cc2ccc3[nH]ccc3c2)[C@H](Cc2ccccc2)[C@H](O)[C@@H](O)[C@@H](Cc2ccccc2)N1Cc1ccc2[nH]ccc2c1 | 8.89 | 190 | 
O=C1N(Cc2ccc3c(c2)NS(=O)(=O)N3)[C@H](Cc2ccccc2)[C@H](O)[C@@H](O)[C@@H](Cc2ccccc2)N1Cc1ccc2c(c1)NS(=O)(=O)N2 | 9.72 | 32000 | 
O=C1N(Cc2ccc3ncoc3c2)[C@H](Cc2ccccc2)[C@H](O)[C@@H](O)[C@@H](Cc2ccccc2)N1Cc1ccc2ncoc2c1 | 8.47 | 440 | 
O=C1N(Cc2ccc3nn[nH]c3c2)[C@H](Cc2ccccc2)[C@H](O)[C@@H](O)[C@@H](Cc2ccccc2)N1Cc1ccc2nn[nH]c2c1 | 10.05 |  | 
Nc1nc2cc(CN3C(=O)N(Cc4ccc5sc(N)nc5c4)[C@H](Cc4ccccc4)[C@H](O)[C@@H](O)[C@H]3Cc3ccccc3)ccc2s1 | 6.72 | 950 | 
O=C1N(Cc2ccc3[nH]nnc3c2)[C@H](Cc2ccccc2)[C@H](O)[C@@H](O)[C@@H](Cc2ccccc2)N1Cc1ccc2[nH]nnc2c1 |  | 530 | 
O=C1N(Cc2ccc3scnc3c2)[C@H](Cc2ccccc2)[C@H](O)[C@@H](O)[C@@H](Cc2ccccc2)N1Cc1ccc2scnc2c1 | 7.55 | 3200 | 
O=C1CNc2cc(CN3C(=O)N(Cc4ccc5c(c4)NCC(=O)N5)[C@H](Cc4ccccc4)[C@H](O)[C@@H](O)[C@H]3Cc3ccccc3)ccc2N1 | 8.21 | 7700 | 
O=C1N(Cc2ccc3c[nH]nc3c2)[C@H](Cc2ccccc2)[C@H](O)[C@@H](O)[C@@H](Cc2ccccc2)N1Cc1ccc2c[nH]nc2c1 | 10.74 | 49 | 
O=C1N(Cc2ccc3oc(O)nc3c2)[C@H](Cc2ccccc2)[C@H](O)[C@@H](O)[C@@H](Cc2ccccc2)N1Cc1ccc2oc(O)nc2c1 | 8.41 | 579 | 
O=C1N(Cc2ccc3nc(O)sc3c2)[C@H](Cc2ccccc2)[C@H](O)[C@@H](O)[C@@H](Cc2ccccc2)N1Cc1ccc2nc(O)sc2c1 | 9.04 | 109 | 
Nc1nc2cc(CN3C(=O)N(Cc4ccc5[nH]c(N)nc5c4)[C@H](Cc4ccccc4)[C@H](O)[C@@H](O)[C@H]3Cc3ccccc3)ccc2[nH]1 | 8.24 | 8100 | 
O=C1N(Cc2ccc3[nH]ncc3c2)[C@H](Cc2ccccc2)[C@H](O)[C@@H](O)[C@@H](Cc2ccccc2)N1Cc1ccc2[nH]ncc2c1 | 10.74 | 8 | half-life [3]: 2.7 h; clearance [4]: 18.3 mL/min/kg; Cmax [5]: 600 ng/mL; half-life [6]: 2 h; clearance [7]: 3.33 mL/min/kg; bioavailability [8]: 13%
O=C1Cc2cc(CN3C(=O)N(Cc4ccc5c(c4)CC(=O)N5)[C@H](Cc4ccccc4)[C@H](O)[C@@H](O)[C@H]3Cc3ccccc3)ccc2N1 | 9.85 | 370 | 
O=C1N(Cc2ccc3[nH]cnc3c2)[C@H](Cc2ccccc2)[C@H](O)[C@@H](O)[C@@H](Cc2ccccc2)N1Cc1ccc2[nH]cnc2c1 | 7.96 | 19000 | 
Nc1nc2ccc(CN3C(=O)N(Cc4ccc5nc(N)oc5c4)[C@H](Cc4ccccc4)[C@H](O)[C@@H](O)[C@H]3Cc3ccccc3)cc2o1 | 9.70 | 84 | 
O=C1N(Cc2ccc(CO)cc2)[C@H](Cc2ccccc2)[C@H](O)[C@@H](O)[C@@H](Cc2ccccc2)N1Cc1ccc(CO)cc1 [DMP-323] |  | 100 | clearance [7]: 118 mL/min/kg
O=C1Nc2ccc(CN3C(=O)N(Cc4ccc5c(c4)C(=O)C(=O)N5)[C@H](Cc4ccccc4)[C@H](O)[C@@H](O)[C@H]3Cc3ccccc3)cc2C1=O | 9.09 | 8500 | 
